pIC50: −log10 of the molar value. Like-named read-outs stand apart in the source and are kept apart here.
Columns and labels:
[1] = target: T1, SOS1 and KRAS G12C interaction (Homo sapiens, UniProt Q07889); experiment: Biochemical analysis of the inhibitory activity of SOS1 and KRAS G12C interaction (time-resolved fluorescence, 665/615 nm)
T1 sequence (Q07889 564-1049 limits assumed): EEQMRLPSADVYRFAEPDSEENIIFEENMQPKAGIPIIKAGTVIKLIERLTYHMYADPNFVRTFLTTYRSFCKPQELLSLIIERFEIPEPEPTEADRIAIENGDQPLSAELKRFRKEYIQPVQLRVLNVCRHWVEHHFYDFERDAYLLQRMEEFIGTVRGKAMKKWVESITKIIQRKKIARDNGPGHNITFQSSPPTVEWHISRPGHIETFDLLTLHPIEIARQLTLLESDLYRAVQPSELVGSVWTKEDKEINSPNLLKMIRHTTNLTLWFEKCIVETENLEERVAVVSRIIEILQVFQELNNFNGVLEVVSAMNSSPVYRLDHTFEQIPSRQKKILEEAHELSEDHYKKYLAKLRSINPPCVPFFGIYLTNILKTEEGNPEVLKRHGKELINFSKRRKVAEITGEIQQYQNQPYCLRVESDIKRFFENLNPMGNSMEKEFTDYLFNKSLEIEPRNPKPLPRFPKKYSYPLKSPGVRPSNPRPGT
Protocol: Biochemical analysis of the inhibitory activity of SOS1 and KRAS G12C interaction
In this experimental example, the efficacy of the compound according to the present invention in inhibiting the binding of KRAS and SOS1 was biochemically measured. A KRAS G12C working solution was prepared by adding biotin-linked KRAS G12C protein and europium-linked streptavidin to assay buffer solution (20 mM HEPES, 50 mM NaCl, 200 µg/mL […] (BSA), 0.01% Pluronic F127). Then, SOS1, in which a tag consisting of six histidine residues is covalently linked, and anti-histidine tag antibody D2 were added to the assay buffer to prepare an SOS1 working solution. After these two working solutions were added to the wells of a well plate, solutions diluted according to the experimental concentration of the test compound from the 10 mM dimethyl sulfoxide (DMSO) stock solution of the Example compound or positive control compound were added to the wells in 100 nL aliquots using an Echo automatic dispenser (Beckman Coulter, USA), or a DMSO blank was added to the wells.

[2] = test system: NCI-H358; experiment: Cell Growth Inhibition Assay (3D CellTiter-Glo); assay type: cell-based; settings: Homo sapiens, read-out: Cell growth IC50
Protocol: Cell Growth Inhibition Assay
In this experimental example, the cell growth inhibitory effect of compounds according to the present invention and positive control compounds in tumor cell lines was examined.
The cell culture medium containing the compound was replaced by 100 µL every 3 days. Luminescence analysis was performed using the 3D CellTiter-Glo Luminescent Cell Viability Assay Kit (Promega, USA) (Promega catalog number G9681). […] The percent cell growth inhibition rate was calculated from the measured relative luminescence unit (RLU) as follows. Inhibition rate = 1−((RLU compound−RLU blank)/(RLU control−RLU blank)) X 100 [formula]

[3] = test system: MIA-PaCa-2; experiment: Reactive oxygen species (ROS) production assay; assay type: cell-based; settings: MIA-PaCa-2 cells, 10 µM, 24 hours; Figure 3
Protocol: Reactive oxygen species (ROS) production assay
In this experimental example, it was examined that the compound according to the present invention has the effect of increasing reactive oxygen in tumor cells.
MIA-PaCa-2 (Korea Cell Line Bank KCLB No. 21420), a cancer cell line harboring KRAS G12C mutation, was cultured in a cell culture medium containing RPMI1640 (Gibco, USA, catalog no. 11875-119), 10% fetal bovine serum (HyClone, USA, catalog no. SH30919.03), and 1 × diluted HyClone Antibiotic Antimycotic solution (HyClone, USA, catalog no. SV30079.01). 3 × 10^5 cells were seeded per well in a 6-well plate and cultured for 1 day at 37°C under 5% CO2 conditions. […] The cells were then collected in a microtube and analyzed for fluorescence using a BD LSRFortessa™ X-20 Cell Analyzer (BD Biosciences, USA) (excitation wavelength: 488 nm, emission wavelength: 535 nm). The fluorescence intensity due to the increase in reactive oxygen species was measured for 10,000 cells. Among the cells treated with 500 µM hydrogen peroxide, which was the positive control, the section in which the fluorescence intensity increased compared to the cells treated with the blank sample was found, and the average fluorescence intensity of the cells within this section was calculated. […]

[4] = target: T2, SOS2 and KRAS G12C interaction (Homo sapiens, UniProt Q07890); assay type: biochemical; settings: SOS2, KRAS G12Cs; read-out: Enzyme activity IC50
T2 sequence (Q07890 1-1332): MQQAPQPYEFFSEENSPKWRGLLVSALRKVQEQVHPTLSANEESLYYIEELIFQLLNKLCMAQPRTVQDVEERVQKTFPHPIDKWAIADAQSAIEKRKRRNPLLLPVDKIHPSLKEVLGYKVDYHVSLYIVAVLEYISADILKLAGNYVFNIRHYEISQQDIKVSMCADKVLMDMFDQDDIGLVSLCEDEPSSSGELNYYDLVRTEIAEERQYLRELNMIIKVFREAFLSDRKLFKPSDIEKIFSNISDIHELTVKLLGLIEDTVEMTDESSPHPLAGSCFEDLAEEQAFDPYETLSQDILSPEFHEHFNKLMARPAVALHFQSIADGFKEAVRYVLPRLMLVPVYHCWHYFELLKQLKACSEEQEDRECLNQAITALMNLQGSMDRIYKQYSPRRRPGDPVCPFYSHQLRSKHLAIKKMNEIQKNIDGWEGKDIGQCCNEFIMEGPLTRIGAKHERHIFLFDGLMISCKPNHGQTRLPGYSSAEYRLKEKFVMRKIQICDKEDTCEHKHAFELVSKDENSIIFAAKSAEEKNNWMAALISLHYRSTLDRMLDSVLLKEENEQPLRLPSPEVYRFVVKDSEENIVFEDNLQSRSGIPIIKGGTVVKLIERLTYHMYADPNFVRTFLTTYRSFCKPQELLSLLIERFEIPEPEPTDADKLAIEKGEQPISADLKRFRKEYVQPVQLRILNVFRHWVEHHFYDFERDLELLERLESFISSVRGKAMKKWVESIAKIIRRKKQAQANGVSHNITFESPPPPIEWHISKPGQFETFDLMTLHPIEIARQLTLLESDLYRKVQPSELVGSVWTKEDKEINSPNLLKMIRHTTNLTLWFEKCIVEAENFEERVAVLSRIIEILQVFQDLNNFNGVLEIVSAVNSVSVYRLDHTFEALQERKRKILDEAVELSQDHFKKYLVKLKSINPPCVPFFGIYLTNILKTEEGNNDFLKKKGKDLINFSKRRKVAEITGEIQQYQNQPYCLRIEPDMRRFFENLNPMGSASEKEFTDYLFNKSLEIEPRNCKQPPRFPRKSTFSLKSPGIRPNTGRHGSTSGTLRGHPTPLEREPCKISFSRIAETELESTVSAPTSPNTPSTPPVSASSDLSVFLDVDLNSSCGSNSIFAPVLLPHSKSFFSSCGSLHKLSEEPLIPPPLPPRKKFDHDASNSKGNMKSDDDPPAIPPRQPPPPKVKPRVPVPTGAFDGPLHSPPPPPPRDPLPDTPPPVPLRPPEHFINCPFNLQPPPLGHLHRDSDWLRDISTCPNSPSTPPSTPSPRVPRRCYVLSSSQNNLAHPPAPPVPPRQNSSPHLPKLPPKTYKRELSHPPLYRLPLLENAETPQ

[5] = SOS1, KRAS G12C, 60 minutes at room temperature, read-out: Enzyme activity IC50

Q: With `COc1cc2nc(C)nc(N[C@H](C)c3cc(-c4ccccc4CN(C)C)c[se]3)c2cc1O[C@H]1CCOC1` [Example 8, N-((R)-1-(4-(2-((dimethylamino)methyl)phenyl)selenophen-2-yl)ethyl)-7-methoxy-2-methyl-6-(((S)-tetrahydrofuran-3-yl)oxy)quinazolin-4-amine] as the compound, how does the pIC50 [1, 5] read?
A: 7.79

Q: How did the pIC50 ([2]; 288 h, NCI-H358 (KRAS G12C), 96-well 3D assay plate, 12 days) turn out when `CNCc1ccccc1-c1csc([C@H](C)Nc2nc(C)nc3cc(OC)c(OC)cc23)c1` [BAY-293, (S)-6,7-dimethoxy-2-methyl-N-[1-[4-[2-[(methylamino)methyl]phenyl]thiophene-2-yl]ethyl]quinazolin-4-amine, reference compound] was run?
A: 6.87

Q: Which results are given for `[2H]C([2H])([2H])NCc1ccccc1-c1c[se]c([C@@H](C)Nc2nc(C)nc3cc(OC)c(OC)cc23)c1` [Example 7, (R)-6,7-dimethoxyl-2-methyl-N-(1-(4-(2-(((methyl-d3)amino)methyl)phenyl)selenophen-2-yl)ethyl)quinazolin-4-amine]?
A: pIC50 ([2]; NCI-H358, 288 h): 7.59; pIC50 [1]: 7.72

Q: What does the source list for `CNCc1ccccc1-c1c[se]c([C@@H](C)Nc2nc(C)nc3cc(OC)c(O[C@H]4CCOC4)cc23)c1` [Example 2, 7-methoxy-2-methyl-N-((R)-1-(4-(2-((methylamino)methyl)phenyl)selenophen-2-yl)ethyl)-6-(((S)-tetrahydrofuran-3-yl)oxy)quinazolin-4-amine]?
A: pIC50 ([2]; NCI-H358, 288 h): 7.23; pIC50 [1]: 7.78

Q: `CNCc1ccccc1-c1c[se]c([C@@H](C)Nc2nc(Cl)nc3c2CN(C(=O)C2(OC)CCOCC2)C3)c1` [Example 3, (R)-(2-chloro-4-((1-(4-(2-((methylamino)methyl)phenyl)selenophen-2-yl)ethyl)amino)-5,7-dihydro-6H-pyrolo[3,4-d]pyrimidine-6-yl)(4-methoxytetrahydro-2H-pyran-4-yl)methanone] was tested. Which pIC50 ([2]; NCI-H358, 288 h) did it give?
A: 6.91

Q: And the pIC50 [1]?
A: 7.46

Q: With `CNCc1ccccc1-c1c[se]c([C@@H](C)Nc2nnc(C)c3cnc(N4CCOCC4)cc23)c1` [Example 4, (R)-4-methyl-N-(1-(4-(2-((methylamino)methyl)phenyl)selenophen-2-yl)ethyl)-7-morpholinopyrido[3,4-d]pyridazine-1-amine] as the compound, how does the pIC50 ([2]; NCI-H358, 288 h) read?
A: 7.29

Q: What about the pIC50 [1] of the same compound?
A: 7.87

Q: With `COc1cc2nc(C)nc(N[C@H](C)c3cc(-c4ccccc4CN4CCCC4)c[se]3)c2cc1O[C@H]1CCOC1` [Example 9, 7-methoxy-2-methyl-N-((R)-1-(4-(2-(pyrrolidine-1-ylmethyl)phenyl)selenophen-2-yl)ethyl)-6-(((S)-tetrahydrofuran-3-yl)oxy)quinazolin-4-amine] as the compound, how does the pIC50 [1, 5] read?
A: 7.65

Q: With `Cc1c(C#N)cccc1[C@@H](C)Nc1nnc(C)c2cnc(N3CCOCC3)cc12` [MRTX0902, (R)-2-methyl-3-(1-((4-methyl-7-morpholinopyrido[3,4-d]pyridazine-1-yl)amino)ethyl)benzonitrile, reference compound] as the compound, how does the pIC50 ([2]; NCI-H358, 288 h) read?
A: 6.97

Q: And the “ROS production compared to the blank sample” value [3]?
A: did not increase ROS production

Q: And the pIC50 [4]?
A: 5.79

Q: `COc1cc2nc(C)nc(N[C@H](C)c3cc(-c4ccccc4CN4CCCC4)c[se]3)c2cc1OC` [Example 6, (R)-6,7-dimethoxyl-2-methyl-N-(1-(4-(2-(pyrrolidine-1-ylmethyl)phenyl)selenophen-2-yl)ethyl)quinazolin-4-amine] was tested. Which pIC50 ([2]; NCI-H358, 288 h) did it give?
A: 7.06

Q: What about the pIC50 [1] of the same compound?
A: 7.12

Q: What does the source list for `COc1cc2nc(C)nc(N[C@H](C)c3cc(-c4ccccc4CN(C)C)c[se]3)c2cc1OC` [Example 5, (R)-N-(1-(4-(2-((dimethylamino)methyl)phenyl)selenophen-2-yl)ethyl)-6,7-dimethoxyl-2-methylquinazolin-4-amine]?
A: pIC50 ([2]; NCI-H358, 288 h): 7.30; pIC50 [1]: 7.56
